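Tested at 5 concentrations; 48 h exposure; 96-well plates; endpoints linearly interpolated, else capped at highest concentration. Abbreviation: GI50, concentration required for 50% inhibition of growth. Definition used: TGI = concentration required for complete inhibition of growth.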
Tests used:
Assay in all cases: DTP human tumour cell line panel, 48 h
BT-549 breast = tested on: BT-549 breast
A549 NSCLC = tested on: A549 NSCLC
UACC-257 melanoma = tested on: UACC-257 melanoma
HOP-62 NSCLC = tested on: HOP-62 NSCLC
SNB-19 CNS = tested on: SNB-19 CNS
SK-OV-3 ovarian = tested on: SK-OV-3 ovarian
IGROV1 ovarian = tested on: IGROV1 ovarian
TK-10 renal = tested on: TK-10 renal
UACC-62 melanoma = tested on: UACC-62 melanoma
NCI-H23 lung = tested on: NCI-H23 lung

Structure (SMILES) | GI50 (BT-549 breast) | TGI (BT-549 breast) | GI50 (A549 NSCLC) | TGI (A549 NSCLC) | GI50 (UACC-257 melanoma) | TGI (UACC-257 melanoma) | GI50 (HOP-62 NSCLC) | TGI (HOP-62 NSCLC) | GI50 (SNB-19 CNS) | TGI (SNB-19 CNS) | GI50 (SK-OV-3 ovarian) | TGI (SK-OV-3 ovarian) | GI50 (IGROV1 ovarian) | TGI (IGROV1 ovarian) | GI50 (TK-10 renal) | TGI (TK-10 renal) | GI50 (UACC-62 melanoma) | TGI (UACC-62 melanoma) | GI50 (NCI-H23 lung) | TGI (NCI-H23 lung)
Nc1cc(C(F)F)c(-c2nc(N3[C@@H]4CC[C@H]3COC4)nc(N3[C@@H]4CC[C@H]3COC4)n2)cn1 | 0.179 µM | 2.77 µM | 0.341 µM | > 100 µM | 0.295 µM | 4.31 µM | 0.161 µM | 2.36 µM | 0.706 µM | > 100 µM | 0.145 µM | 0.769 µM | 0.146 µM | 1.54 µM | 0.156 µM | 3.22 µM | 0.212 µM | 2.2 µM | 0.652 µM | > 100 µM
Cc1cc(NC(=O)CCc2ccc(N3C(N)=NC(N)=NC3(C)C)cc2)ccc1S(=O)(=O)F | 6.53 µM | > 91.9 µM | 0.151 µM | > 100 µM | 15.1 µM | > 100 µM | 20.9 µM | > 100 µM | 0.269 µM | > 100 µM | 4.58 µM | > 100 µM |  | > 100 µM | 4.94 µM | > 100 µM | 0.14 µM | > 100 µM | 1.76 µM | > 100 µM
CC(=O)N1c2ccccc2C23CCN4CC5=CCOC(O)C(C5CC42)C13 (centres undefined) |  | > 100 µM |  | > 100 µM |  | > 100 µM |  |  |  | > 100 µM |  | > 100 µM |  | > 100 µM |  | > 100 µM |  | > 100 µM |  | > 100 µM
COc1ccc(OC)c(-c2nc3sccn3c2/C=C2/C(=O)Nc3ccccc32)c1 | 0.335 µM | 3.13 µM | 0.849 µM | > 60.2 µM | 11.6 µM | 34.7 µM | 0.123 µM | 4.41 µM | 1.72 µM | > 22.7 µM | 0.584 µM | 6.36 µM | 2.1 µM | > 86.1 µM | 1.29 µM | 20.2 µM | 0.293 µM | 12.8 µM | 0.255 µM | 1.69 µM
COC(=O)c1c2c(c(C)[n+]([O-])c1C)C(=O)C(NCc1ccc(F)c(Cl)c1)=CC2=O | 1.88 µM | 5.81 µM | 2.23 µM | 8.15 µM | 1.28 µM | 3.1 µM | 2.96 µM | 23.1 µM | 2.81 µM | 9.33 µM | 3.57 µM | 13.6 µM |  |  | 3.76 µM | 16 µM | 1.38 µM | 3.12 µM | 1.74 µM | 4.77 µM
C#C[C@]1(O)CC[C@H]2[C@@H]3CC=C4c5nc(Nc6ccc(OC)cc6OC)sc5CC[C@]4(C)[C@H]3CC[C@@]21C | 0.656 µM | 4.77 µM | 2.68 µM | 43.9 µM | 1.57 µM | 4.99 µM | 1.93 µM | 7.37 µM | 1.75 µM | 10.7 µM | 1.83 µM | 7.02 µM | 1.99 µM | 7.11 µM | 3.9 µM | 15.6 µM | 1.76 µM | 5.04 µM | 2.18 µM | 12 µM
COCCOC(C)C(/C=N/NC(N)=S)=N/NC(N)=S (centres undefined) | > 100 µM | > 100 µM | > 100 µM | > 100 µM | 0.0232 µM | > 100 µM | > 100 µM | > 100 µM | > 100 µM | > 100 µM | > 100 µM | > 100 µM |  |  | > 100 µM | > 100 µM | > 100 µM | > 100 µM | > 100 µM | > 100 µM
O=S(=O)(Nc1ccc(Cl)c(C(F)(F)F)c1)c1ccc(-c2cnc(C3CC3)o2)cc1 | 0.128 µM | 4.79 µM | 0.577 µM | > 35.6 µM | 1.29 µM | 7.93 µM | 0.615 µM | 4.88 µM |  |  | 0.919 µM | 5.18 µM | 0.507 µM | 5.96 µM | 1.8 µM | 9.58 µM | 0.203 µM | 2.2 µM | 1.37 µM | 6.37 µM
CC(C)OCN1COCN=C1NC#N |  |  |  | > 100 µM |  | > 100 µM |  | > 100 µM |  | > 100 µM |  | > 100 µM |  | > 100 µM |  | > 100 µM |  | > 100 µM |  | > 100 µM
COc1ccc2cc(C(=O)/C=C/c3ccc(OC)c(OC)c3)ccc2c1 | 21.1 µM | 68.7 µM | 4.29 µM | 30.3 µM |  |  | 18 µM | 41.6 µM | 27.2 µM | 80 µM | 32.4 µM | > 100 µM | 10.5 µM | 78.2 µM | 53.1 µM | > 100 µM | 16.2 µM | 39.2 µM |  | 
c1ccc(-c2cc(-c3cc(-c4ccccn4)[nH]n3)n[nH]2)nc1 |  | > 100 µM |  | > 100 µM |  | > 100 µM |  | > 100 µM |  | > 100 µM |  | > 100 µM |  | > 100 µM |  |  |  | > 100 µM |  | > 100 µM
Cc1cccc(NC(=O)CC2C(=O)Nc3ccccc3S2(=O)=O)c1C (centres undefined) |  |  |  | > 100 µM |  | > 100 µM |  | 52.8 µM |  | > 100 µM |  | 37.7 µM |  | 60 µM |  | 79.5 µM |  | 46.3 µM |  | 33.7 µM
CC1CC2C3CC(F)C4=CC(=O)C=CC4(C)C3(F)C(O)CC2(C)C1(O)C(=O)CO (centres undefined) |  |  |  | > 100 µM |  | > 100 µM |  | > 100 µM |  | > 100 µM |  | > 100 µM |  | > 100 µM |  | > 100 µM |  | > 100 µM |  | > 100 µM
COc1cc2cc(C(=O)O)[nH]c2cc1OCc1ccccc1 | > 100 µM | > 100 µM |  |  | 89.4 µM | > 100 µM | > 100 µM | > 100 µM | > 100 µM | > 100 µM | > 100 µM | > 100 µM | > 100 µM | > 100 µM | > 100 µM | > 100 µM | > 100 µM | > 100 µM | > 100 µM | > 100 µM
CC1CC(=O)C(C(O)CC2CC(=O)N(c3ccccc3)C(=O)C2)C(C)C1 (centres undefined) |  |  |  | > 100 µM |  | > 100 µM |  | > 100 µM |  | > 100 µM |  | > 100 µM |  | > 100 µM |  | > 100 µM |  | > 100 µM |  | > 100 µM
COCCN1C2=CCCCC2=Nc2c(N)nc(N)nc21 |  |  |  | > 100 µM |  | > 100 µM |  | > 100 µM |  | > 100 µM |  | > 100 µM |  | > 100 µM |  | > 100 µM |  | > 100 µM |  | > 100 µM
COC(=O)C(C(=O)C(=O)Nc1ccccc1OC)c1csc(-n2nc(-c3ccccc3)cc2-c2ccccc2)n1 (centres undefined) |  |  |  | > 100 µM |  | > 100 µM |  | > 100 µM |  | > 100 µM |  | > 100 µM |  | > 100 µM |  | > 100 µM |  | > 100 µM |  | > 100 µM
O=C(Nc1cc(C(F)(F)F)ccc1Cl)C(=O)C(C(=O)c1ccc2ccccc2c1)C1OC(=O)c2ccccc21 (centres undefined) |  |  |  | > 100 µM |  | 26 µM |  | 16.1 µM |  | 20.6 µM |  | > 100 µM |  | > 92.5 µM |  | 40.3 µM |  | 32.9 µM |  | 17.8 µM
N/C(=N\C(=S)N1CCCCC1)N1CCCCC1 |  |  |  | > 100 µM |  | > 100 µM |  | > 100 µM |  | > 100 µM |  | > 100 µM |  | > 100 µM |  | > 100 µM |  | > 100 µM |  | > 100 µM
CC(NC1CCC[C@H]1O)c1ccccc1 (mixture of isomers) |  |  |  | > 100 µM |  | > 100 µM |  | > 100 µM |  | > 100 µM |  | > 100 µM |  | > 100 µM |  | > 100 µM |  | > 100 µM |  | > 100 µM
Cc1ccc(NC2=C(Cl)C(=O)c3nc(C)ccc3C2=O)cc1 | 1.45 µM | 2.82 µM | 1.81 µM | 4.39 µM | 1.58 µM | 3 µM | 0.836 µM | 2.58 µM | 1.32 µM | 3.01 µM | 11.9 µM | 24.6 µM | 1.54 µM | 3.35 µM | 2.27 µM | 3.81 µM | 1.57 µM | 2.97 µM |  | 
O=C1CCC(=O)c2cc(Br)ccc2N1 |  |  |  | > 100 µM |  | > 100 µM |  | > 100 µM |  | > 100 µM |  | > 100 µM |  | > 100 µM |  | > 100 µM |  | > 100 µM |  | > 100 µM
C=CC(=O)Nc1cc2c(Nc3ccc(OCc4ccccn4)c(Cl)c3)ncnc2cc1OCCN1CCOCC1 | 8.86 µM | 37.4 µM | 6.4 µM | > 100 µM | 10.6 µM | > 100 µM | 3.2 µM | > 100 µM | 3.65 µM | > 100 µM |  |  | 0.125 µM | 4.01 µM | 0.0267 µM | > 100 µM | 2.85 µM | 17.4 µM | 5.24 µM | 20 µM
COC(=O)C1CCc2c(OC)ccc(OC)c2C1=O (centres undefined) |  |  |  | > 100 µM |  | > 100 µM |  | > 100 µM |  | > 100 µM |  | > 100 µM |  | > 100 µM |  | > 100 µM |  | > 100 µM |  | > 100 µM
O=C1OC(=O)C2C3CCC(O3)C12 (centres undefined) |  |  |  | > 100 µM |  | > 100 µM |  | > 100 µM |  | > 100 µM |  | > 100 µM |  | > 100 µM |  | > 100 µM |  | > 100 µM |  | > 100 µM

From PubChem BioAssay (NCI)
